In patent publication US20260078114A1, “COMPOUND USED AS INHIBITOR OF CDK4 KINASE AND USE THEREOF” (TYK MEDICINES, INC., priority 2022, published 2026) one finds IC50 data, which are given here for 24 compounds.

Structures are written as SMILES.

In assay [1] the test system is Human breast cancer cell MCF-7. The assay is described as follows: Cellular antiproliferative assay (MTT, 5 days), MCF-7. The format is cell-based. The conditions noted are these: Homo sapiens, MCF7, 120 h, MCF-7 cells, 5 days incubation. As to the method:
(§1) Human breast cancer cell MCF-7, ovarian cancer cell A2780, human mantle cell lymphoma cell JEKO-1. DMEM medium (Bio-Channel), DMSO (dimethyl sulfoxide), MTT (thiazolyl blue), 0.25% EDTA-Tripsin (tryptic digest), 1×PBS (phosphate buffer, PH7.2), 96-well plate (Corning), fetal bovine serum (FBS), 10,000 U/mL penicillin-G/streptomycin, high-speed cryo-centrifuge (EPPENDORF 5810R), enzyme-linked immunoassay (Tecan Spark).
(§2) • A) Tumor cells were cultured in DMEM (high sugar with 10% FBS and 100 U/mL penicillin-G/streptomycin) at 37° C., 5% CO2 and saturated humidity until 80-90% dense. • B) Removed the culture medium from 10 cm Petri dishes; • C) Rinsed the cells once with 10 ml 1×PBS; • D) Added 4 ml 0.25% EDTA-Tripsin into 37° C., 5% CO2 incubator for trypsin digestion for 5 minutes, transferred to 15 ml centrifuge tube, centrifuged at 200 g for 5 minutes, discarded the supernatant to get cell precipitate; • E) Resuspended with 4 ml DMEM medium, counted and adjust to 50,000 cells/ml. • F) Added cell suspension to 96-well plate with 100 μL per well volume and incubated overnight at 37° C., 5% CO2 incubator.
(§3) • A) Preparation of gradient dilution solution of the tested compound: the test compound was configured into 1 mM reservoir solution.
(§4) • A) Taking the cell culture plate and adding 10 μL of 5 mg/ml MTT in the biosafety cabinet; • B) Putting the cell culture plate back into the incubator and continued incubation for 3 hours; • C) Taking the cell culture plate and removing the culture medium, adding 100 μL isopropanol (containing 0.4 mM HCl, 0.1% NP-40), and shaking the bed at room temperature for 30 min; and • D) Determining the absorbance value by selecting 570 nm on a TECAN enzyme-linked immunoassay detector.
(§5) The % Cell Viability was calculated using the following formula:
(§6) [formula] • Lum_HC: 0.1% DMSO control cell reading • Lum_Sample: cell readings with compound added • Lum_LC: Blank medium reading

Assay [2] deals with ovarian cancer cell A2780. Nature of the assay: Cellular antiproliferative assay (MTT, 5 days), A2780. As to conditions: Homo sapiens, 120 h, A2780 cells, 5 days incubation. The format is cell-based, human. The protocol:
as §1, §2, §3, §4, §5, §6

Assay [3] deals with human mantle cell lymphoma cell JEKO-1. Nature of the assay: Cellular antiproliferative assay (MTT, 5 days), JEKO-1. It is filed as cell-based. The conditions noted are these: Homo sapiens, 120 h, JEKO-1 cells, 5 days incubation. As to the method:
as §1, §2, §3, §4, §5, §6

`CC(C)n1c(N(C)CCO)nc2c(F)cc(-c3nc(N[C@@H]4CCOC[C@H]4O)ncc3Cl)cc21` [TB-9, (3S,4R)-4-((5-chloro-4-(4-fluoro-2-((2-hydroxyethyl)(methyl)amino)-1-isopropyl-1H-benzo[d]imidazol-6-yl)pyrimidin-2-yl)amino)tetrahydro-2H-pyran-3-ol]: the figures for the IC50 in assay [1], in assay [2] and in assay [3] were 500 to 2000 nM, at most 500 nM and at most 500 nM, respectively.

In the case of `CN1CCCn2c1nc1c(F)cc(-c3nc(NC4CCOCC4)ncc3Cl)cc12` [TB-132, 5-chloro-4-(9-fluoro-1-methyl-1,2,3,4-tetrahydrobenzo[4,5]imidazo[1,2-a]pyrimidin-7-yl)-N-(tetrahydro-2H-pyran-4-yl)pyrimidin-2-amine], the IC50 in assay [1] was 500 to 2000 nM; in assay [2], at most 500 nM; in assay [3], at most 500 nM.

Turning to `CCS(=O)(=O)N1CCC(Nc2ncc(Cl)c(-c3cc(F)c4nc5n(c4c3)CCCN5C)n2)CC1` [TB-143, 5-chloro-N-(1-(ethylsulfonyl)piperidin-4-yl)-4-(9-fluoro-1-methyl-1,2,3,4-tetrahydrobenzo[4,5]imidazo[1,2-a]pyrimidin-7-yl)pyrimidin-2-amina], the IC50 in assay [1], in assay [2] and in assay [3] was at most 500 nM in each case.

On to `CC(C)n1c(N2CCOC2=O)nc2c(F)cc(-c3nc(NC4CCN(S(=O)(=O)C(C)C)CC4)ncc3Cl)cc21` [TB-32], for which the IC50 in assay [1], in assay [2] and in assay [3] was at most 500 nM in each case.

With `CC(C)n1c(N(C)C)nc2c(F)cc(-c3nc(NC4CCN(S(C)(=O)=O)CC4)ncc3Cl)cc21` [TB-3, 6-(5-chloro-2-((1-(methylsulfonyl)piperidin-4-yl)amino)pyrimidin-4-yl)-4-fluoro-1-isopropyl-N,N-dimethyl-1H-benzo[d]imidazol-2-amine], the IC50 in assay [1], in assay [2] and in assay [3] was at most 500 nM throughout.

Consider `CC(C)n1c(N2CCCC2)nc2c(F)cc(-c3nc(N[C@@H]4CCOC[C@H]4O)ncc3Cl)cc21` [TB-11, (3S,4R)-4-((5-chloro-4-(4-fluoro-1-isopropyl-2-(pyrrolidin-1-yl)-1H-benzo[d]imidazol-6-yl)pyrimidin-2-yl)amino)tetrahydro-2H-pyran-3-ol], for which the IC50 in assay [1], in assay [2] and in assay [3] was at most 500 nM throughout.

With `CC(C)n1c(N2CCOC2=O)nc2c(F)cc(-c3nc(NC4CCN(S(C)(=O)=O)CC4(F)F)ncc3Cl)cc21` (stereo not drawn) [TB-35], the IC50 in assay [1], in assay [2] and in assay [3] was at most 500 nM each time.

On to `CC(C)n1c(N2CCOC2=O)nc2c(F)cc(-c3nc(NC4CCN(S(C)(=O)=O)CC4)ncc3Cl)cc21` [TB-26], for which the IC50 in assay [1], in assay [2] and in assay [3] was at most 500 nM in each case.

`CN1C(=O)CCn2c1nc1c(F)cc(-c3nc(N[C@@H]4CCOC[C@H]4O)ncc3Cl)cc12` [TB-46, 7-(5-chloro-2-(((3S,4R)-3-hydroxytetrahydro-2H-pyran-4-yl)amino)pyrimidin-4-yl)-9-fluoro-1-methyl-3,4-dihydrobenzo[4,5]imidazo[1,2-a]pyrimidin-2(1H)-one]: the IC50 in assay [1], in assay [2] and in assay [3] was at most 500 nM each time.

As to `CC1CCN(C)c2nc3c(F)cc(-c4nc(N[C@@H]5CCOC[C@H]5O)ncc4Cl)cc3n21` (mixture of isomers) [TB-44, (3S,4R)-4-((5-chloro-4-(9-fluoro-1,4-dimethyl-1,2,3,4-tetrahydrobenzo[4,5]imidazo[1,2-a]pyrimidin-7-yl)pyrimidin-2-yl)amino)tetrahydro-2H-pyran-3-ol], the IC50 in assay [1], in assay [2] and in assay [3] was at most 500 nM each time.

With `CN1CCn2c1nc1c(F)cc(-c3nc(N[C@@H]4CCOC[C@H]4O)ncc3Cl)cc12` [TB-45, (3S,4R)-4-((5-chloro-4-(8-fluoro-1-methyl-2,3-dihydro-1H-benzo[d]imidazo[1,2-a]imidazol-6-yl)pyrimidin-2-yl)amino)tetrahydro-2H-pyran-3-ol], the IC50 in assay [1], in assay [2] and in assay [3] was at most 500 nM in each case.

Turning to `CC(C)n1c(N2CC[C@@H](O)C2)nc2c(F)cc(-c3nc(N[C@@H]4CCOC[C@H]4O)ncc3Cl)cc21` [TB-7, (R)-1-(6-(5-chloro-2-(((3S,4R)-3-hydroxytetrahydro-2H-pyran-4-yl)amino)pyrimidin-4-yl)-4-fluoro-1-isopropyl-1H-benzo[d]imidazol-2-yl)pyrrolidin-3-ol], the IC50 in assay [1], in assay [2] and in assay [3] was at most 500 nM throughout.

In the case of `CC(C)n1c(N2CCOC2=O)nc2c(F)cc(-c3nc(N[C@@H]4CCOC[C@H]4O)ncc3Cl)cc21` [TA-55], the IC50 in assay [1], in assay [2] and in assay [3] was at most 500 nM each time.

As for `C[C@@H]1C[C@H](C)n2c(nc3c(F)cc(-c4nc(N[C@@H]5CCOC[C@H]5O)ncc4Cl)cc32)N1C` [TB-154], the IC50 in assay [1], in assay [2] and in assay [3] was at most 500 nM throughout.

Regarding `CC(C)n1c(N(C)C)nc2c(F)cc(-c3nc(NC4CCOCC4)ncc3Cl)cc21` [TB-2, 6-(5-chloro-2-((tetrahydro-2H-pyran-4-yl)amino)pyrimidin-4-yl)-4-fluoro-1-isopropyl-N,N-dimethyl-1H-benzo[d]imidazol-2-amine], the IC50 in assay [1], in assay [2] and in assay [3] was at most 500 nM throughout.

Consider `CC(C)n1c(N2CC(O)C2)nc2c(F)cc(-c3nc(N[C@@H]4CCOC[C@H]4O)ncc3Cl)cc21` [TB-14, 1-(6-(5-chloro-2-(((38,4R)-3-hydroxytetrahydro-2H-pyran-4-yl)amino)pyrimidin-4-yl)-4-fluoro-1-isopropyl-1H-benzo[d]imidazol-2-yl)azetidin-3-ol], for which the IC50 in assay [1], in assay [2] and in assay [3] was at most 500 nM in each case.

On to `CC(C)n1c(N(C)C)nc2c(F)cc(-c3nc(N[C@H]4CC[C@H](NS(C)(=O)=O)CC4)ncc3Cl)cc21` [TB-5], for which the IC50 in assay [1], in assay [2] and in assay [3] was at most 500 nM throughout.

`CC(C)n1c(N(C)C)nc2c(F)cc(-c3nc(N[C@@H]4CCOC[C@H]4O)ncc3Cl)cc21` [TB-1]: the IC50 in assay [1], in assay [2] and in assay [3] was at most 500 nM each time.

With `C[C@H]1C[C@H](C)n2c(nc3c(F)cc(-c4nc(N[C@@H]5CCOC[C@H]5O)ncc4Cl)cc32)N1C` [TB-153], the IC50 in assay [1], in assay [2] and in assay [3] was at most 500 nM each time.

On to `COc1cc(N2CCNCC2)ccc1Nc1ncc(Cl)c(-c2cc(F)c3nc(N(C)C)n(C(C)C)c3c2)n1` [TB-17, 6-(5-chloro-2-((2-methoxy-4-(piperazin-1-yl)phenyl)amino)pyrimidin-4-yl)-4-fluoro-1-isopropyl-N,N-dimethyl-1H-benzo[d]imidazol-2-amine], for which the IC50 in assay [1], in assay [2] and in assay [3] was 500 to 2000 nM each time.

As to `CNS(=O)(=O)c1ccc(Nc2ncc(Cl)c(-c3cc(F)c4nc5n(c4c3)C(C)CCN5C)n2)cc1` (stereo not drawn) [TB-53, 4-((5-chloro-4-(9-fluoro-1,4-dimethyl-1,2,3,4-tetrahydrobenzo[4,5]imidazo[1,2-a]pyrimidin-7-yl)pyrimidin-2-yl)amino)-N-methylbenzenesulfonamide], the IC50 in assay [1], in assay [2] and in assay [3] was at most 500 nM in each case.

Regarding `CC(C)n1c(N(C)C)nc2c(F)cc(-c3nc(Nc4ccc(N5CCNCC5)cn4)ncc3Cl)cc21` [TB-18, 6-(5-chloro-2-((5-(piperazin-1-yl)pyridin-2-yl)amino)pyrimidin-4-yl)-4-fluoro-1-isopropyl-N,N-dimethyl-1H-benzo[d]imidazol-2-amine], the half-maximal inhibitory concentration (IC50) in assay [1], in assay [2] and in assay [3] was at most 500 nM each time.

As for `CC(C)n1c(N(C)C)nc2c(F)cc(-c3nc(N[C@@H]4CCN(S(C)(=O)=O)C[C@H]4O)ncc3Cl)cc21` [TB-13, (3R,4R)-4-((5-chloro-4-(2-(dimethylamino)-4-fluoro-1-isopropyl-1H-benzo[d]imidazol-6-yl)pyrimidin-2-yl)amino)-1-(methylsulfonyl)piperidin-3-ol], the IC50 in assay [1], in assay [2] and in assay [3] was at most 500 nM throughout.

For `CCN1CCN(Cc2ccc(Nc3ncc(Cl)c(-c4cc(F)c5nc(N(C)C)n(C(C)C)c5c4)n3)nc2)CC1` [TB-16], the IC50 in assay [1], in assay [2] and in assay [3] was at most 500 nM throughout.
